Settings in the first data set: not given
As for `C=CC(C)(O)CCC=C(C)C` (stereo not given), the boiling point (usually the temperature at which the vapour pressure of the liquid equals the pressure above it) came out at 198 °C, the log10 Henry constant (atm·m³/mol) is -4.67, the log10 vapour pressure (mmHg) is -0.796 and the ready biodegradability result is reported as “readily biodegradable”. `CCCCCCCC(=O)OCCCCCC`: the boiling point came out at 277 °C and the melting point (usually the temperature, or range, at which the solid turns liquid) was -30.6 °C.

As to `c1ccc(CCCc2ccccc2)cc1`, the boiling point came to 300 °C and the melting point worked out at 6 °C.

As for `COCCO`, the boiling point is 124 °C, the log10 Henry constant (atm·m³/mol) is -6.48, the log10 vapour pressure (mmHg) was determined as 0.978 and the ready biodegradability entry is given as “readily biodegradable”. For the molecule `c1cnc2c(c1)ccc1cccnc12`, the melting point stood at 117 °C.

The molecule `ClSC(Cl)(Cl)Cl` had a boiling point of 148 °C and a log10 vapour pressure (mmHg) of 0.477. `CC(C)OC(=O)c1ccco1`: the boiling point turned out to be 198 °C.

The molecule `CC(=O)NCCS` had a melting point of 6.5 °C. The molecule `C#CC(C)(C)NC(=O)c1cc(Cl)cc(Cl)c1` had a log10 Koc (L/kg) of 2.31, a log10 vapour pressure (mmHg) of -6.36 and a melting point of 155 °C.

As to `Cc1cc2nc3c(=O)[nH]c(=O)nc-3n(C[C@H](O)[C@H](O)[C@H](O)CO)c2cc1C`, the ready biodegradability result is reported as “not readily biodegradable”. In turn, `Cc1cnc(C)o1` returned a boiling point of 118 °C. With `CC[C@](C)(N)C(=O)O` (racemic), the melting point was 316 °C.

For the molecule `CCNCC.Cl`, the melting point stood at 228 °C. Take `CN(C)CCN(C)CCN(C)C`: the ready biodegradability entry is given as “not readily biodegradable”. On to `C=CC(=O)OCC(CC)CCCC` (stereo not given), for which the boiling point amounted to 214 °C, the log10 vapour pressure (mmHg) is -0.75, the melting point is -90 °C and the ready biodegradability entry is listed as “readily biodegradable”. For `O=C(O)c1c(F)cccc1Cl`, the melting point was found to be 160 °C. `C1CC2CCC1CC2` gave a log10 vapour pressure (mmHg) of 0.523. With `COc1cc(O)cc(OC)c1`, the melting point was 37 °C.

Consider `Cc1ccc(N)cc1Cl`, for which the boiling point worked out at 243 °C and the melting point was found to be 26 °C. `CCCCC(CC)COC(=O)CCCCCCCCC(=O)OCC(CC)CCCC` (stereo not given): the melting point is -48 °C. As to `COc1cccc(N(C)C(=S)Oc2cccc(C(C)(C)C)c2)n1`, the melting point turned out to be 86 °C. On to `Cc1c(Cl)cc(Cl)c(O)c1Cl`, for which the boiling point came to 265 °C and the melting point is 46 °C. `CC(=O)CC(=O)OCCCl` gave a boiling point of 198 °C. `O=C(O)C(Cl)Br` (racemic): the boiling point came out at 215 °C and the melting point stood at 31.5 °C. `CCOC(=O)c1cn2nc(OP(=S)(OCC)OCC)cc2nc1C`: the melting point was found to be 51 °C.

`C[C@H](O)CCc1ccccc1` yielded a boiling point of 239 °C.

As for `CCC(CC)CC(C)(C)C`, the boiling point was found to be 147 °C.

Regarding `C=CCN(CC=C)CC=C`, the boiling point came to 156 °C, the log10 vapour pressure (mmHg) was determined as 0.561 and the ready biodegradability result was “not readily biodegradable”. As to `CCCCCCCCCCCCCCCC(=O)OCCC`, the melting point stood at 20.4 °C.

`CC(C)=CCC/C(C)=C/C=C/C(C)=C/C=C/C(C)=C/C=C/C=C(C)/C=C/C=C(C)/C=C/C1=C(C)CCCC1(C)C` showed a melting point of 178 °C. `COc1ccc(CC(=O)O)cc1`: the melting point is 87 °C. `Clc1ccc(-c2cccc(Cl)c2Cl)cc1` yielded a log10 Henry constant (atm·m³/mol) of -3.85. `Cc1cccc([N+](=O)[O-])c1` came in with a boiling point of 232 °C, a log10 Henry constant (atm·m³/mol) of -5.03, a log10 vapour pressure (mmHg) of -0.687 and a melting point of 15.5 °C. In addition, the ready biodegradability entry is given as “not readily biodegradable”. Take `CCCCCCCBr`: the boiling point amounted to 179 °C, the log10 vapour pressure (mmHg) amounted to 0.105 and the melting point is -58 °C. On to `CCC(Cl)[N+](=O)[O-]` (stereo not given), for which the boiling point was 142 °C. In turn, `C1CCC2NC2C1` (stereo not given) gave a boiling point of 150 °C and a melting point of 21 °C.

In turn, `Cc1cc[nH]c(=O)c1` registered a boiling point of 308 °C and a melting point of 130 °C. `O=C(O)c1c(Cl)ccc(Cl)c1O`: the log10 Koc (L/kg) turned out to be 2.3. For the molecule `O=C(Nc1ccc(O)cc1)c1ccccc1O`, the melting point is 179 °C. Take `CCC(C)(CC)CC(C)C`: the boiling point was determined as 161 °C. Still for that read-out and setting: in the case of `CC(F)=C(Cl)Cl` it was 78 °C. As to `Clc1ccc(-c2c(Cl)c(Cl)cc(Cl)c2Cl)c(Cl)c1`, the log10 Henry constant (atm·m³/mol) was -4.29. On to `O=C1C=CCCC1`, for which the boiling point is 170 °C and the melting point is -53 °C.

`C=CCC(C)(O)CC=C` had a boiling point of 158 °C. The molecule `CC1CCCSC1` (stereo not given) registered a boiling point of 158 °C and a melting point of -60 °C.

Molecule `CCC(=O)Nc1ccc(Cl)c(Cl)c1` returned a boiling point of 351 °C, a log10 Koc (L/kg) of 2.17, a log10 vapour pressure (mmHg) of -6.04 and a melting point of 92 °C. Besides, the ready biodegradability entry was “readily biodegradable”.

Consider `CC(C)(C)c1cc(C(=O)O)c(O)c(C(C)(C)C)c1`, for which the ready biodegradability entry is given as “not readily biodegradable”. Regarding `NCC(=O)O`, the ready biodegradability result is “readily biodegradable”. `O=c1[nH]c2ccccc2n1CCCN1CCN(C(c2ccccc2)c2ccccc2)CC1` yielded a melting point of 154 °C.

The same data set, now with this note: fish.
`C1COCCN1` returned a log10 BCF of 0.45.

`Cc1cc(Cl)ccc1O` came in with a log10 BCF of 1.33 and a log10 biotransformation half-life (days) of -0.83. The molecule `Cc1ccc(Cl)cc1` came in with a log10 BCF of 1.76 and a log10 biotransformation half-life (days) of -0.83. With `CCC(C)n1c(=O)[nH]c(C)c(Br)c1=O` (stereo not given), the log10 BCF was determined as 0.51 and the log10 biotransformation half-life (days) was -1.33. The corresponding values for `Nc1ccccc1[N+](=O)[O-]` are 1 and -0.46. In the case of `CCc1ccccc1[N+](=O)[O-]`, the log10 BCF stood at 1.11 and the log10 biotransformation half-life (days) is -0.56.

Regarding `Clc1ccc(-c2cc(Cl)ccc2Cl)cc1`, the log10 BCF amounted to 4.13 and the log10 biotransformation half-life (days) came out at 1.91. Molecule `C=CCN(CC=C)CC=C` registered a log10 BCF of 0.55. `Clc1ccc(-c2cccc(Cl)c2Cl)cc1`: the log10 biotransformation half-life (days) amounted to 2.16. `Cc1cccc([N+](=O)[O-])c1` yielded a log10 BCF of 1.08 and a log10 biotransformation half-life (days) of -0.79.

Regarding `CCC(=O)Nc1ccc(Cl)c(Cl)c1`, the log10 BCF came out at 1.84.

For the origin of these results see the OPERA property sets (Mansouri et al. 2018).
